Assay in all cases: biochemical
Holding throughout (design): Eurofins KinaseProfiler full panel at Km ATP, residual kinase activity (%) relative to DMSO

In one assay the target is T1, PIP4K2a(h) (Homo sapiens, UniProt P48426).
T1 sequence (P48426 1-406): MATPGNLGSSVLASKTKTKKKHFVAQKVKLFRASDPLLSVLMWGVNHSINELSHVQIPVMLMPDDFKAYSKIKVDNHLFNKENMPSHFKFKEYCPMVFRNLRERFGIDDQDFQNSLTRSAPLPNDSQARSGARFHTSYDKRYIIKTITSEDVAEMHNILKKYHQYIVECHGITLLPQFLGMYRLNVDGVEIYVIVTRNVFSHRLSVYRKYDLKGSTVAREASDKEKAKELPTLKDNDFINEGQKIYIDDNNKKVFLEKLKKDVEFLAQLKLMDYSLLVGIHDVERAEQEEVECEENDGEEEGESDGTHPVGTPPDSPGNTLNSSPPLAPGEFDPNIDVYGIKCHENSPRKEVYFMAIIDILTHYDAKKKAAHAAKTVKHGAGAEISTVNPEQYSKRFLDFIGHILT
In outline: (§1)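 Radiometric kinase activity assays were run with ATP at Km and compounds at 10 µM, and remaining activity (%) was reported. A separate competitive binding screen measured DNA-tagged kinase displaced from immobilized active-site ligands by qPCR, giving percent kinase still bound at 10 µM compound in DMSO.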

Another assay concerns the target T2, Pyk2(h) (Homo sapiens, UniProt Q14289).
T2 construct: gene PTK2B
In outline:
as §1

In another assay the target is T3, RIPK1(h) (Homo sapiens, UniProt Q13546).
T3 sequence (Q13546 1-671): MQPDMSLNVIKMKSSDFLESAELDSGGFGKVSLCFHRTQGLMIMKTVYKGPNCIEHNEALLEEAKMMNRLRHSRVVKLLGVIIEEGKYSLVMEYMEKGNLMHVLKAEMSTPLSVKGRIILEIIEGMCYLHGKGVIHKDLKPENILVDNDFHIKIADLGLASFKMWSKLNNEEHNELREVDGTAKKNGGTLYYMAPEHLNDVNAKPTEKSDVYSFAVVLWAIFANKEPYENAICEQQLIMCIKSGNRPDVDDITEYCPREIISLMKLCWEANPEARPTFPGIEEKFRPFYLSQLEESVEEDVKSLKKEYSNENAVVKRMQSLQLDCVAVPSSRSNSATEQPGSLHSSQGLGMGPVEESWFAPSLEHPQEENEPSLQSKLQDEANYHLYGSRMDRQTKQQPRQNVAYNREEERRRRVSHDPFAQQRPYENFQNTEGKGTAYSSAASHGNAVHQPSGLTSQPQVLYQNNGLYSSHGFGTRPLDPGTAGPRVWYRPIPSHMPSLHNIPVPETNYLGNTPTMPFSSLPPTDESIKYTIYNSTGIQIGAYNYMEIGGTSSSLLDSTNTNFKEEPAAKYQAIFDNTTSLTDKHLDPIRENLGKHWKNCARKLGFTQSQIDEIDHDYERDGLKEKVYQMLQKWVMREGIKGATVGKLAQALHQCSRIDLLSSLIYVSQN
An outline of the steps:
as §1

The target in the next assay is T4, TSSK1(h) (Homo sapiens, UniProt Q9BXA7).
T4 construct: gene TSSK1B
T4 sequence (Q9BXA7 1-367): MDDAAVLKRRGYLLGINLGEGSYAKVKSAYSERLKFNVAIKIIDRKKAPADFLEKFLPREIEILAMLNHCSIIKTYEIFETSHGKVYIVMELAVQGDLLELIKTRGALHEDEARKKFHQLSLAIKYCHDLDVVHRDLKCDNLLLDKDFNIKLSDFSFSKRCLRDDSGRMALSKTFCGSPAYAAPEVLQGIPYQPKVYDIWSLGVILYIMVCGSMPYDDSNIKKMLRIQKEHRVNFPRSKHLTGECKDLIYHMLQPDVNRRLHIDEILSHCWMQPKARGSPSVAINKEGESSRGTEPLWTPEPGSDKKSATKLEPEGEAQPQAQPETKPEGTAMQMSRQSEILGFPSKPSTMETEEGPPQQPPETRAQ
An outline of the steps: as §1

In the next assay the target is T5, MEKK3(h) (Homo sapiens, UniProt Q99759).
T5 construct: gene MAP3K3
T5 sequence (Q99759 1-626): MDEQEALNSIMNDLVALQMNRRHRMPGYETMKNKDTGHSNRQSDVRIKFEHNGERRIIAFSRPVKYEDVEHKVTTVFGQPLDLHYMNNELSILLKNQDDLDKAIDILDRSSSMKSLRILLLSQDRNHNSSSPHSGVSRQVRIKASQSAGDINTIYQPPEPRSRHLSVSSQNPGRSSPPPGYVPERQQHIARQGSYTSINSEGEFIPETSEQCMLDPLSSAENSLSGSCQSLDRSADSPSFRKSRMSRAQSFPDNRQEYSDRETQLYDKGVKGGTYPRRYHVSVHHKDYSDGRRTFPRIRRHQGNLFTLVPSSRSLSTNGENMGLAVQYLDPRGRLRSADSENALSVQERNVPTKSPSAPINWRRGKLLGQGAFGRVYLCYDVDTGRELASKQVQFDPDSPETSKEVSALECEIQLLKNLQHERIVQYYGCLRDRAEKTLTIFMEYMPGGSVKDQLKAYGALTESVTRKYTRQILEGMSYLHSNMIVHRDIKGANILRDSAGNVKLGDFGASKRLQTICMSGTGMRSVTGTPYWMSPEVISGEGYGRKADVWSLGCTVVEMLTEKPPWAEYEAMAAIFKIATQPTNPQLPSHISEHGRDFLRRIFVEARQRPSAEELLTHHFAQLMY
An outline of the steps: as §1

The mark [1] stands for this setting: read-out: Residual activity (%) Spautin-1 5aa.
The mark [2] stands for this setting: read-out: Residual activity (%) 5as.
[3] abbreviates: read-out: Residual activity (%) 5at.
[4] abbreviates: read-out: Residual activity (%) 5ay.

Read-outs that look alike come from different tables or passages of the source.

Remaining activity data for four molecules are collected here from paper PMC7827406, “Structure–Activity Relationship (SAR) Study of Spautin-1 to Entail the Discovery of Novel NEK4 Inhibitors” (International Journal of Molecular Sciences, 2021).

T2 sequence (Q14289 whole entry): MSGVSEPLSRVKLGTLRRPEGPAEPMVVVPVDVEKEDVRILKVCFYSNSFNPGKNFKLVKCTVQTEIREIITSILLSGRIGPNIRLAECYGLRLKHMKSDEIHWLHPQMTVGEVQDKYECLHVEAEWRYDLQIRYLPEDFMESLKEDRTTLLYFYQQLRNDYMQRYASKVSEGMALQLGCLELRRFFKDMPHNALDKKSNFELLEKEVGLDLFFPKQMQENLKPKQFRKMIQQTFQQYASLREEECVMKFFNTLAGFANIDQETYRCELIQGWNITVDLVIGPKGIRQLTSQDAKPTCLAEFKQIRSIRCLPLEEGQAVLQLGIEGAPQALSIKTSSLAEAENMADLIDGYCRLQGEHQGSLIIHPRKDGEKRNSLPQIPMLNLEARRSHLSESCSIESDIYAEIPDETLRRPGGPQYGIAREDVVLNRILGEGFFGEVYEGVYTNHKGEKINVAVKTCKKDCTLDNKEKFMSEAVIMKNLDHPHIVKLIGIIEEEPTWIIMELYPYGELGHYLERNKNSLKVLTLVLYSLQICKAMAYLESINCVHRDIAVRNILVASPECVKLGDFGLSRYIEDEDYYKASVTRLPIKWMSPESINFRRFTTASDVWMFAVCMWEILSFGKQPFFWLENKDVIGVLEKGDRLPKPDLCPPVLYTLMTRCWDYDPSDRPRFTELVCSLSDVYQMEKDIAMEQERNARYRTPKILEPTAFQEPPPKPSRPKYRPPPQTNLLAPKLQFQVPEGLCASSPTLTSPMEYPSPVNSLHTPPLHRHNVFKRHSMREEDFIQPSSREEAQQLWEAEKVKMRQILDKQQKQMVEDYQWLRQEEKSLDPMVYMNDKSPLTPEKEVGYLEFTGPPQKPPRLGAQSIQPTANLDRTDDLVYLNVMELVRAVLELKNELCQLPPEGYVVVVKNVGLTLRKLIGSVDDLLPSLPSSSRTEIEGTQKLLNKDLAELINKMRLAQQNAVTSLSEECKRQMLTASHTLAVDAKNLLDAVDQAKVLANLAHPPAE

Consider `Fc1ccc(CNc2ncnc3ccc(F)cc23)cc1` [5aa, 6-Fluoro-N-(4-fluorobenzyl)-4-Quinazolinamine], for which the remaining activity at 10 µM amounted to 93% on PIP4K2a(h) (setting [1]); 86% on Pyk2(h) (setting [1]); 86% on RIPK1(h) (setting [1]); 82% at TSSK1(h) (setting [1]); 93% at MEKK3(h) (setting [1]).
For `Fc1ccc(CCNc2ncnc3ccc(F)cc23)cc1` [5as, 6-Fluoro-N-[2-(4-Fluorophenyl)Ethyl]-4-Quinazolinamine], the remaining activity at 10 µM on PIP4K2a(h) (setting [2]) was 96%; on Pyk2(h) (setting [2]) it was 74%; at RIPK1(h) (setting [2]) it was 73%; on TSSK1(h) (setting [2]) it was 82%; on MEKK3(h) (setting [2]) it was 107%.
Turning to `Fc1ccc2ncnc(NCCc3ccc(Cl)cc3)c2c1` [5at, N-[2-(4-Chlorophenyl)Ethyl]-6-Fluoro-4-Quinazolinamine], the remaining activity at 10 µM on PIP4K2a(h) (setting [3]) is 92%; on Pyk2(h) (setting [3]), 69%; at RIPK1(h) (setting [3]), 80%; on TSSK1(h) (setting [3]), 77%; at MEKK3(h) (setting [3]) it was 98%.
As for `COc1ccc2ncnc(Nc3cccc(F)c3)c2c1` [5ay, N-(3-Fluorophenyl)-6-Methoxy-4-Quinazolinamine], the remaining activity at 10 µM at PIP4K2a(h) (setting [4]) is 102%; at Pyk2(h) (setting [4]), 72%; on RIPK1(h) (setting [4]) it was 78%; on TSSK1(h) (setting [4]), 81%; on MEKK3(h) (setting [4]), 83%.
